# Where two headings read alike, the source gives them in different places.
# Legend:
# [1] = test system: SNU-449; assay: Cancer cell line profiling, Genomics of Drug Sensitivity Project; details: Homo sapiens, SNU-449, read-out: CD532 EC50 (uM)
# [2] = test system: ML-1; assay: as above; details: ML1, read-out: CD532 EC50 (uM)
# [3] = test system: A2058; assay: as above
# [4] = test system: HO-1-u-1; assay: as above; details: read-out: CD532 EC50 (uM)
# [5] = test system: HLE; assay: as above; details: Homo sapiens, read-out: CD532 EC50 (uM)
# [6] = test system: huH-1; assay: as above; details: Homo sapiens, HuH-1, read-out: CD532 EC50 (uM)
# [7] = test system: MZ7-mel; assay: as above
# [8] = test system: DSH1; assay: as above; details: read-out: CD532 EC50 (uM)
# [9] = test system: SK-MEL-5; assay: as above
# [10] = test system: AGS; assay: as above; details: Homo sapiens, read-out: CD532 EC50 (uM)
# [11] = test system: NH-12; assay: as above; details: read-out: CD532 EC50 (uM)
# [12] = test system: 23132/87; assay: as above; details: read-out: CD532 EC50 (uM)
# [13] = test system: HTC-C3; assay: as above; details: Homo sapiens, HTC-C3, read-out: CD532 EC50 (uM)
# [14] = test system: MYCN; assay: MYCN protein by immunoblot in SHEP cells expressing MYCN; assay type: cell-based
# Procedure: (§1) Neuroblastoma tumor cell lines were obtained from the University of California San Francisco Cell Culture Facility (Kelly, SK-N-BE2, and SH-EP). SMS-KCN, SHEP MYCN^wt and MYCN^T58A/S62A cells were obtained. All cells were grown in RPMI with 10% FBS. Neuroblastoma cells were harvested and lysed with Cell Signaling Lysis buffer+1% SDS, sonicated and supernatants boiled in LDS sample buffer (Invitrogen). Western blots were performed as described previously (Chanthery et al., 2012), with primary antibodies to MYCN (ab24193, Abcam), Histone H3, P-Histone H3 (S10), Aurora A (Cell signaling), and GAPDH (Millipore). Western blot quantitation performed with ImageJ software.
# MYCN is believed to be sequentially phosphorylated at S62/T58 before it is targeted for degradation by ubiquitination, and only phosphorylated, ubiquitinated MYCN is protected from degradation by Aurora A (Gustafson and Weiss, 2010; Otto et al., 2009).
# [15] = test system: OVKATE; assay: Cancer cell line profiling, Genomics of Drug Sensitivity Project; details: read-out: CD532 EC50 (uM)
# [16] = test system: MEL-JUSO; assay: as above; details: Homo sapiens, read-out: CD532 EC50 (uM)
# [17] = test system: NBsusSR; assay: as above; details: read-out: CD532 EC50 (uM)
# [18] = test system: HO-1-N-1; assay: as above; details: read-out: CD532 EC50 (uM)
# [19] = test system: Ca9-22; assay: as above; details: Homo sapiens, Ca9-22, read-out: CD532 EC50 (uM)
# [20] = test system: SH-4; assay: as above; details: Homo sapiens, SH-4, read-out: CD532 EC50 (uM)
# [21] = test system: HSC-4; assay: as above; details: Homo sapiens, HSC-4, read-out: CD532 EC50 (uM)
# [22] = test system: HPAC; assay: as above; details: Homo sapiens, read-out: CD532 EC50 (uM)
# [23] = test system: BB30-HNC; assay: as above; details: read-out: CD532 EC50 (uM)
# [24] = test system: MYCN; assay: Screen of Kelly MYCN-amplified cells, western blot for MYCN; assay type: cell-based; details: 1 μM, 24 hrs
# Procedure: as §1
# To test whether this panel of 32 putative conformation-disrupting Aurora A inhibitors would destabilize MYCN, initially Kelly MYCN-amplified neuroblastoma cells were treated with candidate inhibitors and MYCN protein was measured by western blot. Phosphorylation of Histone H3, a known substrate for Aurora A and B and a marker for mitosis, was also assessed. FIGS. 1B and 5 show decreased levels of both MYCN protein and p-Histone H3 in response to several members of the screening panel (quantitated in FIG. 1).
# [25] = test system: RVH-421; assay: Cancer cell line profiling, Genomics of Drug Sensitivity Project; details: Homo sapiens, RVH-421, read-out: CD532 EC50 (uM)
# [26] = test system: MEL-HO; assay: as above; details: read-out: CD532 EC50 (uM)
# [27] = test system: PE/CA-PJ15; assay: as above; details: read-out: CD532 EC50 (uM)
# [28] = test system: 8505C; assay: as above; details: Homo sapiens, read-out: CD532 EC50 (uM)
compound,measurement,setting,value
"O=C(Nc1ccc(Nc2nccc(Nc3cc(C4CCCC4)[nH]n3)n2)cc1)Nc1cccc(C(F)(F)F)c1 [CD532, 1-(4-((4-((5-cyclopentyl-1H-pyrazol-3-yl)amino)pyrimidin-2-yl)amino)phenyl)-3-(3-(trifluoromethyl)phenyl)urea]",EC50,[1],12.1 µM
same,EC50,[2],1.32 µM
same,EC50,"[3]; Homo sapiens, A2058, read-out: CD532 EC50 (uM), A2058 cell line, Skin",0.975 µM
same,EC50,"[3]; read-out: CD532 EC50, A2058 cell line, Skin",1.09 µM
same,EC50,[4],9.81 µM
same,EC50,[5],0.567 µM
same,EC50,[6],1.38 µM
same,EC50,"[7]; read-out: CD532 EC50 (uM), MZ7-mel cell line, Skin",0.73 µM
same,EC50,"[7]; read-out: CD532 EC50, MZ7-mel cell line, Skin",0.556 µM
same,EC50,[8],0.779 µM
same,EC50,"[9]; Homo sapiens, SK-MEL-5, read-out: CD532 EC50 (uM), SK-MEL-5 cell line, Skin",0.525 µM
same,EC50,"[9]; read-out: CD532 EC50, SK-MEL-5 cell line, Skin",0.366 µM
same,EC50,[10],0.346 µM
same,EC50,[11],0.37 µM
same,EC50,[12],0.471 µM
same,EC50,[13],0.915 µM
same,wild-type MYCN protein,"[14]; SHEP cells expressing MYCNWT, 24 hrs, increasing concentrations (FIG. 12C)",dose-dependent decrease in wild-type MYCN protein
same,MYCNT58A/S62A protein,"[14]; SHEP cells expressing non-phosphorylatable MYCNT58A/S62A, 24 hrs (FIG. 12C)",partially protected from degradation
same,EC50,[15],6 µM
same,EC50,[16],0.783 µM
same,EC50,[17],0.382 µM
same,EC50,[18],1.67 µM
same,EC50,[19],0.705 µM
same,EC50,[20],0.783 µM
same,EC50,[21],0.885 µM
same,EC50,[22],2.5 µM
same,EC50,[23],0.462 µM
same,MYCN protein level,[24],decreased levels of both MYCN and p-Histone H3 proteins
same,EC50,[25],0.585 µM
same,EC50,[26],0.411 µM
same,EC50,[27],1.9 µM
same,EC50,[28],0.662 µM
